The subject of data set [1] is PCSK9. The experiment in a line: PCSK9 lowering in sandwich culture human hepatocytes (SCHH). The data set is classed as cell-based. The note with it: maximum response versus vehicle. As to the method: Test compound in-vitro pharmacokinetic and pharmacodynamic relationships were measured in sandwich culture primary cryopreserved human hepatocytes. Within these studies SCHH cells (BD Biosciences IVT) were thawed at 37° C. then placed on ice, after which the cells were added to pre-warmed (37° C.) In VitroGRO-HT media and centrifuged at 50×g for 3 min. The cell pellet was re-suspended to 0.8×10^6 cells/mL in InVitroGRO-CP plating medium and cell viability determined by trypan blue exclusion. On day 1, hepatocyte suspensions were plated in BioCoat 96-well plates at a density of 80000 cells/well in a volume of 0.1 mL/well. After 18 to 24 hours of incubation at 37° C. in 5% CO2, cells were overlaid with ice-cold 0.25 mg/mL BD Matrigel Matrix Phenol Red-Free in incubation medium at 0.1 mL/well. Cultures were maintained at 37° C. in 5% CO2 in InVitroGRO-HI (FBS-free media), which was replaced every 24 hours and time course treatments were initiated on day 5. Prior to compound treatment cell plates were washed 3 times with 0.1 mL/well InVitroGRO-HI and 0.09 mL of media was added back in preparation for the compound additions. 1 uL of either DMSO or compound DMSO stocks at 30 mM, 10 mM, 3 mM and 1 mM were stamped into 96 well V bottom polypropylene plates. 0.099 mL of media was added to the compound plate and mixed thoroughly before the addition of 0.010 mL from the interim compound plate to the cell plate. […] At the indicated time, 0.08 mL of media was removed from the cell plates and frozen for subsequent analysis of secreted PCSK9 by AlphaLISA and for determination of drug levels in the media by liquid chromatography-tandem mass spectrometry (LC-MS/MS). The remaining media was then aspirated and the cell layers were washed 3× with ice cold Hanks Balanced Salt Solution (HBSS) under shaking conditions to remove the matrigel overlay and plates were then stored at −20° C. for subsequent determination of drug levels in the cells by LC-MS/MS. AlphaLISA determination of PCSK9 protein levels within the conditioned media was performed ultilizing the identical reagents and detection protocols described above for the WT7 cells.

Data set [2] concerns human PCSK9. Put plainly: PCSK9 AlphaLISA assay, PCSK9 lowering in WT7 cells. Particulars: WT7 cells (Huh7 stably over-expressing human PCSK9); secreted PCSK9 by AlphaLISA; overnight incubation (16-24 h); top concentration 20 μM; read-out: Cell Based PCSK9 IC50. From the text: An in-vitro AlphaLISA assay (Perkin Elmer) was developed in order to quantitate the level of PCSK9 secreted into the cell culture media following compound treatment. To detect and measure PCSK9 protein an in-house generated anti-PCSK9 antibody was coupled to AlphaLISA acceptor beads by an external vendor (PerkinElmer) and a second internally developed anti-PCSK9 antibody with an epiptope distinct from that of the acceptor beads was biotinylated in house. Streptavidin coated-donor beads (Perkin Elmer) are also included in the assay mixture which then binds the biotinylated anti-PCSK9 antibody and in the presence of PCSK9 this donor complex and acceptor beads are brought into close proximity. […] The ability of compound to modulate PCSK9 protein levels in conditioned media by AlphaLISA was assessed in the human hepatocellular carcinoma cell line Huh7, stably over-expressing human PCSK9. […] Following plasmid transfection the stable WT7 clone was identified and maintained under Zeocin selection. Compound screening was performed in 384-well plates where WT7 cells were plated at a density of 7500 cells per well in 20 μL of tissue culture media containing compound in an eleven point, 0.5 log dilution format at a high treatment concentration of 20 μM in a final volume of 0.5% DMSO. In additional to these test compound conditions each screening plate also included wells that contained 20 μM puromycin as a positive assay control defined as high percent effect, HPE, as well as wells containing media in 0.5% DMSO as a negative treatment control defined as zero percent effect, ZPE. After overnight compound incubation (16-24 h) the tissue culture media was collected and an aliquot from each sample was transferred to individual wells of a 384-well white Optiplate (Perkin Elmer). The coupled antibodies and donor beads were added to the assay plates in a buffer composed of 30 mM Tris pH 7.4, 0.02% Tween-20 and 0.02% Casein. Anti-PCSK9 acceptor beads (final concentration of 10 μg/mL) and anti-PCSK9 biotinylated antibody (final concentration of 3 nM) were added and incubated for 30 minutes at room temperature followed by the addition of the streptavidin donor beads (final concentration 40 μg/mL) for an additional 60 minutes. Additionally a standard curve was generated where AlphaLISA reagents were incubated in wells spiked with recombinant human PCSK9 diluted in tissue culture media from 5000 ng/mL to 0.6 ng/mL. […] The test compound data were converted into percent effect, using the ZPE and HPE controls as 0% and 100% activity, respectively. The equation used for converting each well reading into percent effect was:
[formula] IC50 was then calculated and reported as the midpoint in the percent effect curve in molar units and the values are reported under the Cell Based PCSK9 IC50 (μM) column header within Table 1 Biological Data. Additionally, to monitor the selectivity of compound response for PCSK9 the level of a second secreted protein, Transferrin, was measured from the same conditioned media treated with test compound by AlphaLISA. […] To detect and quantify effects on Transferrin 0.01 mL of the culture media was transferred to a 384-well white Optiplate and 0.01 mL of media was added to bring the volume to 0.02 ml. Anti-Transferrin acceptor beads were added to a final concentration of 10 μg/mL, biotinylated anti-Transferrin at 3 nM and streptavidin donor beads at 40 μg/mL. Percent effect and IC50 for Transferrin was computed in a similar manner as that described for PCSK9.
For orientation: Alpha assays give light when donor and acceptor beads are brought close together.

In data set [3] the test system is human PCSK9. Put plainly: Cell Free PCSK9 Assay (PCSK9-luciferase RNA translated in HeLa cell lysate). The data set is classed as biochemical. Particulars: 30° C. for 45 minutes, luciferase readout, top concentration 100 μM. Here is the method:
In order to eliminate the permeability barrier inherent to the WT7 and SCHH cell-based assays a cell-free system was also established to access compound activity. […] The construct was then in-vitro transcribed using the MEGAscript T7 Kit (Life Technologies) and RNA subsequently purified incorporating the MEGAclear Kit (Life Technologies) according to manufacturer's protocols. […] Growth was in a 50 L wavebag at a rocker speed of 25 rpm and angle 6.1 with 5% CO2 and 0.2 LPM flow rate with cells harvested at a density of 2-2.5e6/ml. Lysates additionally contained 1 tablet of Roche cOmplete-EDTA protease inhibitors per 50 ml with tris(2-carboxyethyl)phosphine (Biovectra) substituted for dithiothreitol, and were clarified by an additional final centrifugation at 10,000 rpm in a Sorvall SS34 rotor at 4° C. for 10 minutes. Compound screening was performed in 384-well plates in an eleven point, 0.5 log dilution format at a top test compound concentration of 100 μM in a final volume of 0.5% DMSO. […] Upon assay completion 1 μL from each reaction solution was removed and transferred to a second 384-well Optiplate (Perkin Elmer) containing 24 μL of SteadyGlo (Promega) and signal intensity was measured on the Envision (Perkin Elmer) using the enhanced luminescence protocol. […] The test compound data were converted into percent effect, using the ZPE and HPE controls as 0% and 100% activity, respectively, applying Equation 1 above. IC50 was then calculated and reported as the midpoint in the percent effect curve in molar units and the values are reported under the Cell Free PCSK9 IC50 (μM) column header within Table 1 Biological Data.

pIC50: −log10 of the molar value.

As a reminder, the pIC50 is −log10 of the IC50, conventionally taken in molar units. On to `CCC(=O)OC(CC)n1nnc(-c2c(-c3ccc(C(=O)N(c4ncccc4C)[C@@H]4CCCNC4)cc3)cnn2C)n1` (single isomer, unassigned) [Example 47], for which the “Sandwich Culture Hepatocyte (SCHH) PCSK9 Lowering” value in data set [1] (at 6 h at 30 uM) was determined as 12% at 6 h at 30 uM. In data set [2], the negative logarithm of the IC50 (pIC50) was under 4.70.

Turning to `Cn1ncc(-c2ccc(C(=O)N(c3ncccc3Cl)[C@@H]3CCCNC3)cc2)c1-c1nn[nH]n1` [Example 26, N-(3-chloropyridin-2-yl)-4-[1-methyl-5-(2H-tetrazol-5-yl)-1H-pyrazol-4-yl]-N-[(3R)-piperidin-3-yl]benzamide], the results for the pIC50 in data set [3] and in data set [2] were 5.24 and under 4.70, respectively.

In the case of `Cn1ncc(-c2ccc(C(=O)N(c3ncccc3Cl)[C@@H]3CCCNC3)cc2)c1C(=O)NS(=O)(=O)C(F)(F)F` [Example 22, 4-(4-{(3-chloropyridin-2-yl)[(3R)-piperidin-3-yl]carbamoyl}phenyl)-1-methyl-N-[(trifluoromethyl)sulfonyl]-1H-pyrazole-5-carboxamide], the negative-log IC50 (pIC50) is 5.24 in data set [3] and under 4.70 in data set [2].

For `CCOC(=O)OC(C)n1nnnc1-c1c(-c2ccc(C(=O)N(c3ncccc3C)[C@@H]3CCCNC3)cc2)cnn1C` (stereo partly drawn) [Example 21], in data set [1] (at 6 h at 30 uM), the “Sandwich Culture Hepatocyte (SCHH) PCSK9 Lowering” value is reported as 57% at 6 h at 30 uM. The negative-log IC50 (pIC50) in data set [2] was under 4.70.

For the compound `Cn1ncc(-c2ccc(C(=O)N(c3ncccc3Cl)[C@@H]3CCCNC3)cc2)c1C(=O)NO` [Example 25, 4-(4-{(3-chloropyridin-2-yl)[(3R)-piperidin-3-yl]carbamoyl}phenyl)-N-hydroxy-1-methyl-1H-pyrazole-5-carboxamide], the results for the negative logarithm of the IC50 (pIC50) in data set [3] and in data set [2] were 5.53 and under 4.70, respectively.

In the case of `CCOC(=O)O[C@H](C)n1nnc(-c2c(-c3ccc(C(=O)N(c4ncccc4C)[C@@H]4CCCNC4)cc3)cnn2C)n1` [Example 31, ethyl (1R)-1-{5-[1-methyl-4-(4-{(3-methylpyridin-2-yl)[(3R)-piperidin-3-yl]carbamoyl}phenyl)-1H-pyrazol-5-yl]-2H-tetrazol-2-yl}ethyl carbonate], the “Sandwich Culture Hepatocyte (SCHH) PCSK9 Lowering” value in data set [1] (at 8 h at 30 μM) stood at 19% at 8 h at 30 uM. In addition, in data set [2], the negative logarithm of the IC50 (pIC50) was under 4.70.

For `CCOC(=O)O[C@@H](C)n1nnc(-c2c(-c3ccc(C(=O)N(c4ncccc4C)[C@@H]4CCCNC4)cc3)cnn2C)n1` [Example 30, ethyl (1S)-1-{5-[1-methyl-4-(4-{(3-methylpyridin-2-yl)[(3R)-piperidin-3-yl]carbamoyl}phenyl)-1H-pyrazol-5-yl]-2H-tetrazol-2-yl}ethyl carbonate], in data set [1] (at 8 h at 30 μM), the “Sandwich Culture Hepatocyte (SCHH) PCSK9 Lowering” value came to 11% at 8 h at 30 uM. The pIC50 in data set [2] is under 4.78.

Consider `Cn1ncc(-c2ccc(C(=O)N(c3ncccc3Cl)[C@@H]3CCCNC3)cc2)c1C(=O)NS(C)(=O)=O` [Example 27, 4-(4-{(3-chloropyridin-2-yl)[(3R)-piperidin-3-yl]carbamoyl}phenyl)-1-methyl-N-(methylsulfonyl)-1H-pyrazole-5-carboxamide], for which the pIC50 is 4.84 in data set [3] and under 4.70 in data set [2].

As to `Cn1ncc(-c2ccc(C(=O)N(c3ncccc3Cl)[C@@H]3CCCNC3)cc2)c1C(=O)Nc1nnn[nH]1` [Example 24, 4-(4-{(3-chloropyridin-2-yl)[(3R)-piperidin-3-yl]carbamoyl}phenyl)-1-methyl-N-(1H-tetrazol-5-yl)-1H-pyrazole-5-carboxamide], the negative-log IC50 (pIC50) in data set [3] is 4.60; in data set [2] it was under 4.70.

On to `CCOC(=O)OC(C)N(C(=O)c1c(-c2ccc(C(=O)N(c3ncccc3C)[C@@H]3CCCNC3)cc2)cnn1C)S(C)(=O)=O` (stereo partly drawn) [Example 29, ethyl 1-[{[1-methyl-4-(4-{(3-methylpyridin-2-yl)[(3R)-piperidin-3-yl]carbamoyl}phenyl)-1H-pyrazol-5-yl]carbonyl}methylsulfonyl)amino]ethyl carbonate], for which, in data set [1] (at 6 h at 30 uM), the “Sandwich Culture Hepatocyte (SCHH) PCSK9 Lowering” value is reported as 72% at 6 h at 30 uM. The pIC50 in data set [2] is under 4.70.

Turning to `O=C(c1ccc(-c2cnn3cccnc23)cc1)N(c1ncccc1Cl)[C@@H]1CCCNC1` [Example 2, N-(3-chloropyridin-2-yl)-N-[(3R)-piperidin-3-yl]-4-(pyrazolo[1,5-a]pyrimidin-3-yl)benzamide], the negative-log IC50 (pIC50) in data set [3] was 6.16; in data set [2], 5.77.

In turn, `CCOC(=O)OC(C)OC(=O)c1c(-c2ccc(C(=O)N(c3nccc4ccccc34)[C@@H]3CCCNC3)cc2)cnn1C` (stereo partly drawn) [Example 11, 1-[(ethoxycarbonyl)oxy]ethyl 4-(4-{isoquinolin-1-yl[(3R)-piperidin-3-yl]carbamoyl}phenyl)-1-methyl-1H-pyrazole-5-carboxylate] had a pIC50 in data set [3] of 5.68.

Regarding `Cc1cccnc1N(C(=O)c1ccc(-c2cnn(C)c2C(=O)NS(C)(=O)=O)cc1)[C@@H]1CCCNC1` [Example 28, 1-methyl-4-(4-{(3-methylpyridin-2-yl)[(3R)-piperidin-3-yl]carbamoyl}phenyl)-N-(methylsulfonyl)-1H-pyrazole-5-carboxamide], the pIC50 in data set [3] is 4.77; in data set [2], under 4.70.

Consider `Cn1ncc(-c2ccc(C(=O)N(c3nccc4ccccc34)[C@@H]3CCCNC3)cc2)c1C(=O)O` [Example 4, 4-(4-{isoquinolin-1-yl[(3R)-piperidin-3-yl]carbamoyl}phenyl)-1-methyl-1H-pyrazole-5-carboxylic acid], for which the figures for the pIC50 in data set [3] and in data set [2] were 5.42 and under 4.70, respectively.

The values are drawn from patent US9227956B2 (Pfizer Inc., priority 2013, dated 2016).
